Turning to `Cc1cccc(-c2[nH]c(C(C)C)nc2-c2cccc(-c3ccccn3)c2)n1` [Example 43, 2-[2-Isopropyl-4-(3-pyridin-2-ylphenyl)-1H-imidazol-5-yl]-6-methylpyridine], the melting point – broadly, the temperature of the solid-liquid transition – is 97 to 100 °C.

Molecule `Cc1cccc(-c2[nH]c(C(C)C)nc2-c2cccc(-c3ccc(C(=O)NC4CCOCC4)cc3)c2)n1` [Example 44, N-(Tetrahydropyran-4-yl)-4-{3-[2-isopropyl-5-(6-methylpyridin-2-yl)-1H-imidazol-4-yl]-phenyl}benzamide] had a melting point of 140 °C.

Take `Cc1cccc(-c2[nH]c(CC(C)C)nc2-c2cccc(-c3ccc(C(=O)NC4CCOCC4)cc3)c2)n1` [Example 45, N-(Tetrahydropyran-4-yl)-4-{3-[2-isobutyl-5-(6-methylpyridin-2-yl)-1H-imidazol-4-yl]phenyl}benzamide]: the melting point fell in the range of 126 to 129 °C. To `Cc1cccc(-c2[nH]c(C3CC3)nc2-c2cccc(-c3ccc(C(=O)NC4CCOCC4)cc3)c2)n1` [Example 46, N-(Tetrahydropyran-4-yl)-4-{3-[2-cyclopropyl-5-(6-methylpyridin-2-yl)-1H-imidazol-4-yl]phenyl}benzamide] belongs 127 to 128 °C; to `Cc1cccc(-c2[nH]c(C(C)C)nc2-c2cccc(-c3ccc(C(=O)NN4CCOCC4)cc3)c2)n1` [Example 51, N-(Morpholin-4-yl)-4-{3-[2-isopropyl-5-(6-methylpyridin-2-yl)-1H-imidazol-4-yl]-phenyl}benzamide], 145 °C; to `Cc1cccc(-c2nc(C(C)C)[nH]c2-c2cccc(-c3ccc(C(=O)N4CC[S+]([O-])CC4)cc3)c2)n1` [Example 56, 4-({3′-[2-Isopropyl-4-(6-methylpyridin-2-yl)-1H-imidazol-5-yl]-1,1′-biphenyl-4-yl}carbonyl)thiomorpholine 1-oxide], 136 to 140 °C. To `Cc1cccc(-c2nc(C(C)C)[nH]c2-c2cccc(-c3ccc(C(=O)N4CCS(=O)(=O)CC4)cc3)c2)n1` [Example 57, 4-({3′-[2-Isopropyl-4-(6-methylpyridin-2-yl)-1H-imidazol-5-yl]-1,1′-biphenyl-4-yl}carbonyl)thiomorpholine 1,1-dioxide] belongs 141 to 145 °C. The molecule `Cc1cccc(-c2[nH]c(C(C)C)nc2-c2ccc(F)c(-c3ccc(S(C)(=O)=O)cc3)c2)n1` [Example 61, 2-{4-[6-Fluoro-4′-(methylsulfonyl)-1,1′-biphenyl-3-yl]-2-isopropyl-1H-imidazol-5-yl}-6-methylpyridine] came in with a melting point of 113 to 115 °C. To `Cc1cccc(-c2nc(N)sc2-c2cccc(-c3ccc(S(C)(=O)=O)cc3)c2)n1` [Example 62, 4-(6-Methylpyridin-2-yl)-5-[4′-(methylsulfonyl)-1,1′-biphenyl-3-yl]-1,3-thiazol-2-amine] belongs 107 to 109 °C; to `CCc1cccc(-c2[nH]c(C(C)C)nc2-c2cccc(-c3ccc(S(C)(=O)=O)cc3)c2)n1` [Example 64, 2-Ethyl-6-{2-isopropyl-4-[4′-(methylsulfonyl)-1,1′-biphenyl-3-yl]-1H-imidazol-5-yl}pyridine], 108 to 110 °C.

For the molecule `Cc1cccc(-c2[nH]c(C(C)C)nc2-c2ccc(F)c(-c3ccc(C(=O)NN4CCOCC4)cc3)c2)n1` [Example 66, N-(Morpholin-4-yl)-4-{2-fluoro-5-[2-isopropyl-5-(6-methylpyridin-2-yl)-1H-imidazol-4-yl]phenyl}benzamide], the melting point was in the range of 153 to 155 °C. To `Cc1cccc(-c2[nH]c(C(C)C)nc2-c2cccc(-c3ccc(NC(=O)NN4CCOCC4)cc3)c2)n1` [Example 67, N-{3′-[2-Isopropyl-5-(6-methylpyridin-2-yl)-1H-imidazol-4-yl]-1,1′-biphenyl-4-yl}-N′-morpholin-4-ylurea] belongs 146 to 148 °C; to `Cc1cccc(-c2[nH]c(C(C)C)nc2-c2cccc(-c3ccc(C)[nH]3)c2)n1` [Example 69, 2-{2-Isopropyl-4-[3-(5-methyl-1H-pyrrol-2-yl)phenyl]-1H-imidazol-5-yl}-6-methylpyridine], 128 to 130 °C. To `Cc1cccc(-c2nc(C(C)C)[nH]c2-c2cccc(-c3cnn(C)c3)c2)n1` [Example 70, 2-{2-Isopropyl-5-[3-(1-methyl-1H-pyrazol-4-yl)phenyl]-1H-imidazol-4-yl}-6-methylpyridine] belongs 84 to 86 °C; to `Cc1cccc(-c2[nH]c(C(C)C)nc2-c2cccc(-c3ccc(NS(C)(=O)=O)cc3F)c2)n1` [Example 73, N-{2-Fluoro-3′-[2-isopropyl-5-(6-methylpyridin-2-yl)-1H-imidazol-4-yl]-1,1′-biphenyl-4-yl}methanesulfonamide], 179 to 184 °C; to `Cc1cccc(-c2[nH]c(C(C)C)nc2-c2cccc(-c3ccc(NS(=O)(=O)C4CC4)cc3F)c2)n1` [Example 74, N-{2-Fluoro-3′-[2-isopropyl-5-(6-methylpyridin-2-yl)-1H-imidazol-4-yl]-1,1′-biphenyl-4-yl}cyclopropanesulfonamide], 124 to 128 °C. Turning to `Cc1cccc(-c2[nH]c(C(C)C)nc2-c2cccc(-c3ccc(S(N)(=O)=O)cc3F)c2)n1` [Example 75, 2-Fluoro-3′-[2-isopropyl-5-(6-methylpyridin-2-yl)-1H-imidazol-4-yl]-1,1′-biphenyl-4-sulfonamide], the melting point is 246 to 248 °C. To `Cc1cccc(-c2[nH]c(C(C)C)nc2-c2cccc(-c3ccc(N)cn3)c2)n1` [Example 76, 6-{3-[2-Isopropyl-5-(6-methylpyridin-2-yl)-1H-imidazol-4-yl]phenyl}pyridine-3-amine] belongs 119 to 124 °C; to `Cc1cccc(-c2[nH]c(C(C)C)nc2-c2cccc(-c3cc[nH]c3)c2)n1` [Example 78, 2-{2-Isopropyl-4-[3-(1H-pyrrol-3-yl)phenyl]-1H-imidazol-5-yl}-6-methylpyridine], 112 to 114 °C. On to `Cc1cccc(-c2[nH]c(C(C)C)nc2-c2cccc(-c3ccc4c(c3)C(=O)CC[S+]4[O-])c2)n1` (centres unmarked) [Example 80, 6-{3-[2-Isopropyl-5-(6-methylpyridin-2-yl)-1H-imidazol-4-yl]phenyl}-2,3-dihydro-4H-thiochromen-4-one 1-oxide], for which the melting point lay in the range of 145 to 148 °C. In the case of `Cc1cccc(-c2[nH]c(C(C)C)nc2-c2cccc(-c3ccc4c(c3)C(=O)CCS4(=O)=O)c2)n1` [Example 81, 6-{3-[2-Isopropyl-5-(6-methylpyridin-2-yl)-1H-imidazol-4-yl]phenyl}-2,3-dihydro-4H-thiochromen-4-one 1,1-dioxide] it was 115 to 119 °C. The molecule `Cc1cccc(-c2[nH]c(C(C)C)nc2-c2cccc(-c3ccc4c(c3)CCCS4)c2)n1` [Example 82, 2-{4-[3-(3,4-Dihydro-2H-thiochromen-6-yl)phenyl]-2-isopropyl-1H-imidazol-5-yl}-6-methylpyridine] showed a melting point of 115 to 117 °C. To `Cc1cccc(-c2[nH]c(C(C)C)nc2-c2cccc(-c3ccc4c(c3)CCC[S+]4[O-])c2)n1` (centres unmarked) [Example 83, 2-{2-Isopropyl-4-[3-(1-oxido-3,4-dihydro-2H-thiochromen-6-yl)phenyl]-1H-imidazol-5-yl}-6-methylpyridine] belongs 136 to 139 °C.
